Reference: US5620997A, “Isothiazolones” (Warner-Lambert Company, priority 1995, dated 1997)

Target: T1, HIV-1 Nucleocapsid Protein (NCp7) (Human immunodeficiency virus type 1 group M subtype B, UniProt P12493)
T1 construct: The NCp7 protein containing 2 Zn-fingers and 2 Zn ions
Assay: Fluorescence-based (TSQ) assay of zinc ejection from purified HIV-1 NCp7
Format: biochemical
Conditions: 10 μM compound, 2.8 μM NCp7, 47 μM TSQ, pH 7.4, 26° C., 90 minutes
Excerpt: The compounds of the present invention cause the extrusion of zinc from the nucleocapsid protein (NCp7) of HIV-1. The NC protein is highly conserved among all retroviruses (South T., Blake P., et al., Biochemistry, 1990;;29:7786) and is essential for viral infectivity (Aldovini A. and Young R., J. Virology, 1990;64:1920 and Gorelick R., Nigida S., et al., J. Virology, 1990;64:3207). The zinc is normally held in NC proteins by 1 or 2 zinc fingers. In the case of HIV-1, 2 zinc fingers are present (Summers M., South T., et al., Biochemistry, 1990;29:329) and are involved specifically with the PSI site on viral RNA which controls the packaging of viral RNA. Interference of this packaging causes the formation of non-infectious virions (Dannull J., Surovoy A., et al., EMBO, 1994;13:1525). It has previously been shown that compounds that cause zinc extrusion have potent anti-HIV activity in multiple cell lines and against all retroviruses (Rice W., Schaeffer C., et al., Nature, 1993;361:473).
A fluorescence-based assay has been developed to monitor the ejection of zinc from purified HIV-1 NCp7. The fluorophore, N-(6-methoxy-8-quinolyl)-p-toluenesulfonamide (TSQ), has an increased fluorescent signal upon bonding zinc ion in solution. The NCp7 protein containing 2 Zn-fingers and 2 Zn ions is incubated with drug causing the extrusion of Zn ions. The released Zn is then sequestered by the TSQ and the increased fluorescence monitored relative to control. The assay was performed as follows: 10 μM compound was added to 2.8 μM NCp7 and 47 μM TSQ in 20 μL of pH 7.4 buffer at 26° C. for 90 minutes. Fluorescence (excitation 355 nm emission 400 nm) was monitored versus time. Controls were the NCp7 under assay conditions without drug, and apo NCp7 (no Zn) with drug. The % Zn extrusion was calculated based on the actual fluorescence measured divided by the fluorescence of all theoretical Zn extruded (5.6 μM)×100.
Table 1 below presents the results of testing several of the invention compounds in zinc extrusion assay described above. The compounds were evaluated for their ability to cause the extrusion of zinc from nucleocapsid protein NCp7 (expressed as % relative to control).

Question: Which “% Zn Extrusion Relative to Control” value does the source give for `NS(=O)(=O)c1ccc(-n2sc3ccccc3c2=O)cc1` [Example 1, 4-(3-Oxo-3h-benzo[d]isothiazol-2-yl)-benzenesulfonamide] here?
Answer: The value was 100%.
